Reference: patent publication US20080269332A1, “EYELASH ENHANCEMENT COMPOSITION AND METHOD OF TREATMENT” (LA CANADA VENTRURES, INC., priority 2007, published 2008)

Tested on: eyelash growth
Experiment: Randomized double blind clinical trial of eyelash growth, daily topical application to root of upper eyelashes for 4 weeks
Assay type: in vivo, human
Protocol: These solutions were each applied daily to the roots of the upper right and left eyelashes of the patients in a quantity of approximately 0.0164 ml. Patients applied the eyelash product daily for 4 weeks on the root of the upper eyelashes only since some of the solution used may ultimately be deposited on the lower lash interfering with the studies' parameters. Methods: 34 patients were randomly assigned to one of three different treatment groups based on a standard treatment of the upper right lash and different treatments of the upper left eye lash with varying concentrations of the active product and a placebo. Age range of the patients was 20-56; 33 female, 1 male. Three different treatment Groups were constructed based on RIGHT EYE lash treatment/LEFT EYE lash treatment and defined as Groups A/B, A/D and A/C). All patients used Solution A on the right eye lash which is the “Control Group”, with Solutions B, D, and C used on the left eye lash of these same patients. Group A/B (14 patients) used Solution A on the upper right lash and Solution B on the upper left lash. Group A/D (9 patients) used Solution A on the upper right lash and Solution D on the upper left lash. Group A/C (11 patients) used Solution A on the upper right lash and the placebo, Solution C, on the upper left lash. After four (4) weeks upper RIGHT eyelash measurement were made for all 34 randomized patients. The upper LEFT eyelash measurement were made for the 14 patients using Solution B, for the 9 patients using Solution D and the 11 patients using Solution C (the placebo). Eyelash measurements for both the upper right and left eyelashes were taken in the medial, middle and lateral locations on both upper and lower eyelids using micocalipers and measured to 0.1 mm. The mean of the six measurements were then used to calculate the eyelash length for each eye. Measurements were taken at the initiation of the study to use as standard base. The technicians performing the measurements were blinded to the patient group assignment. A paired two-tailed Student's t-Test was used for statistical analysis. All patients enrolled into the study underwent a standard informed consent procedure.

SMILES: CCNC(=O)CCC/C=C\C[C@@H]1[C@@H](/C=C/[C@@H](O)COc2ccccc2)[C@H](O)C[C@@H]1O [active agent, (z)-7-((1R,2R,3R,5S)-3,5-dihydroxy-2-((R,E)-3-hydroxy-4-phenoxybut-1-enyl)cyclopentyl)-N-ethylhept-5-enamide]
- increase lash growth relative to placebo (growth with active / growth with placebo ×100) (4 weeks of daily use, placebo Solution C growth 0.63 mm): 268.25%
- patients subjectively reporting an increase in the thickness or fullness of their eyelashes (9/34 patients, 4 weeks of daily use): 26%
- patients reporting mild or minimal irritation (19/34 patients, typically resolved after several days of use): 56%
- patients reporting moderate irritation and discontinuing (34 patients, daily topical use): One patient reported moderate irritation and discontinued the product
